Measured values: patent US9694016B2 (Novartis AG, priority 2013, dated 2017)
Read-outs that look alike come from different tables or passages of the source.

Target: b-Raf (V600E) (Homo sapiens (Human), UniProt P15056, V600E)
Conditions: read-out: b-Raf IC-50, AlphaScreen
[1] = 60 min pre-incubation, reaction 3 hours at room temperature
[2] = 60 min pre-incubation, 3 hours reaction

Chain of b-Raf (V600E) (P15056 whole entry V600E): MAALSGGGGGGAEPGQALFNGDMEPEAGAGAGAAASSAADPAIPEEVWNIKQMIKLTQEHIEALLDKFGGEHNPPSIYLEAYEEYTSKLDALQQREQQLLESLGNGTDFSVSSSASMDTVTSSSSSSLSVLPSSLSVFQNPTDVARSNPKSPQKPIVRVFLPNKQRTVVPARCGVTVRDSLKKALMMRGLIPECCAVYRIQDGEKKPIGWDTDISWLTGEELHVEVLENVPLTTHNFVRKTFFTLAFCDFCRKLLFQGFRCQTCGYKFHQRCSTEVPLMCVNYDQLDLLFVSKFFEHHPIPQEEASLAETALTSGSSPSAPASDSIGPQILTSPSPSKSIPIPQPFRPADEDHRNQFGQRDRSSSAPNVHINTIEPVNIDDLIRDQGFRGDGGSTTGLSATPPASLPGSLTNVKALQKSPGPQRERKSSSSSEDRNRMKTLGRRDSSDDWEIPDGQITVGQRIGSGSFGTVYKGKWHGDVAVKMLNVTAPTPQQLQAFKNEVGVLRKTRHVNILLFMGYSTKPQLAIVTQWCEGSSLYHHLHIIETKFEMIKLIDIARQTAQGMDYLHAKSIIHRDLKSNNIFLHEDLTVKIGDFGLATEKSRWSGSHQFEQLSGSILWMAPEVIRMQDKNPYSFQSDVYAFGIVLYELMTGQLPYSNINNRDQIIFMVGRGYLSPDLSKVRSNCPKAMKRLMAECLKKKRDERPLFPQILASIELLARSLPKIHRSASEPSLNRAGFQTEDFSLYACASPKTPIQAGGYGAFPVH

IC50 [1] [nM] | IC50 [2] [nM] | SMILES | further results
3.84 |  | Cc1ncc(NC(=O)c2cccc(C(F)(F)F)c2)cc1-c1cc(N2CCOCC2)nc(N2CC(O)C2)c1 [Example 1094, N-(2′-(3-hydroxyazetidin-1-yl)-2-methyl-6′-morpholino-[3,4′-bipyridin]-5-yl)-3-(trifluoromethyl)benzamide] | 
2.88 |  | Cc1ncc(NC(=O)c2ccnc(C(C)(C)F)c2)cc1-c1cnc(OC2CC3(COC3)C2)c(N2CCOCC2)c1 [Example 963, N-(6′-(2-oxaspiro[3.3]heptan-6-yloxy)-2-methyl-5′-morpholino-[3,3′-bipyridin]-5-yl)-2-(2-fluoropropan-2-yl)isonicotinamide] | 
1.03 |  | Cc1ccc(NC(=O)c2ccnc(C(F)(F)F)c2)cc1-c1cc(N2CCOCC2)c(S(C)(=O)=O)nn1 [Example 930] | 
1.83 |  | CCOc1ncc(-c2cc(C(=O)Nc3cc(C(F)(F)F)ncc3F)ccc2C)cc1N1CCOCC1 [Example 961, 3-(6-ethoxy-5-morpholinopyridin-3-yl)-N-(5-fluoro-2-(trifluoromethyl)pyridin-4-yl)-4-methylbenzamide] | 
4.11 |  | CCOc1ccc(-c2cc(NC(=O)c3ccnc(C(C)(F)F)c3)cnc2C)nc1N1CCOCC1 [Example 1028, 2-(1,1-difluoroethyl)-N-(5-ethoxy-2′-methyl-6-morpholino-[2,3′-bipyridin]-5′-yl)isonicotinamide] | 
0.65 |  | Cc1ccc(NC(=O)c2cccc(C(F)(F)F)c2)cc1-c1cc(N2CCOCC2)nc(N2C[C@H](O)CC2=O)c1 [Example 1064, (R)—N-(3-(2-(4-hydroxy-2-oxopyrrolidin-1-yl)-6-morpholinopyridin-4-yl)-4-methylphenyl)-3-(trifluoromethyl)benzamide] | 
 | 1.9 | Cc1ccc(NC(=O)c2ccnc(C(C)(C)C#N)c2)cc1-c1cc(N2CCOCC2)nc(N[C@H](C)CO)n1 [Example 749, (R)-2-(2-cyanopropan-2-yl)-N-(3-(2-((1-hydroxypropan-2-yl)amino)-6-morpholinopyrimidin-4-yl)-4-methylphenyl)isonicotinamide] | 
0.6 |  | Cc1ccc(NC(=O)c2cnnc(C3CC3)c2)cc1-c1cc(OC2CCOCC2)nc(N2CCOCC2)c1 [Example 1154, 6-cyclopropyl-N-(4-methyl-3-(2-morpholino-6-((tetrahydro-2H-pyran-4-yl)oxy)pyridin-4-yl)phenyl)pyridazine-4-carboxamide] | 
25000 |  | CC(F)(F)c1cc(C(=O)Nc2c[nH]c(=O)c(-c3ccnc(N4CCOCC4)c3)c2)ccn1 [Example 1171, 2-(1,1-difluoroethyl)-N-(2′-morpholino-2-oxo-1,2-dihydro-[3,4′-bipyridin]-5-yl)isonicotinamide] | 
0.65 |  | Cc1ccc(NC(=O)c2ccnc(C(F)F)c2)cc1-c1cc(N2CCOCC2)nc(N2CCOCC2)c1 [Example 1115, 2-(difluoromethyl)-N-(3-(2,6-dimorpholinopyridin-4-yl)-4-methylphenyl)isonicotinamide] | 
 | 3.4 | Cc1ccc(NC(=O)c2ccnc(C(C)(C)C#N)c2)cc1-c1cc(N2CCOCC2)nc(NC2(CO)CCOCC2)n1 [Example 754, 2-(2-cyanopropan-2-yl)-N-(3-(2-((4-(hydroxymethyl)tetrahydro-2H-pyran-4-yl)amino)-6-morpholinopyrimidin-4-yl)-4-methylphenyl)isonicotinamide] | 
1.4 |  | Cc1ncc(NC(=O)c2cccc(C(F)(F)F)c2)cc1-c1cc(N2CCOCC2)c2nccn2n1 [Example 867, N-(6-methyl-5-(8-morpholinoimidazo[1,2-b]pyridazin-6-yl)pyridin-3-yl)-3-(trifluoromethyl)benzamide] | 
 | 34.8 | CCNc1nc(-c2cc(NC(=O)c3ccnc(C(C)(C)O)c3)cnc2C)cc(N2CCOCC2)n1 [Example 723, N-(5-(2-(ethylamino)-6-morpholinopyrimidin-4-yl)-6-methylpyridin-3-yl)-2-(2-hydroxypropan-2-yl)isonicotinamide] | 
 | 2 | CCC(F)(F)c1cc(C(=O)Nc2cnc(C)c(-c3cc(N4CCOCC4)n4nccc4n3)c2)ccn1 [Example 800, 2-(1,1-difluoropropyl)-N-(6-methyl-5-(7-morpholinopyrazolo[1,5-a]pyrimidin-5-yl)pyridin-3-yl)isonicotinamide] | 
1.29 |  | CCOc1cc(-c2cc(NC(=O)c3ccnc(C(F)(F)F)c3)ccc2C)cc(N2CCOCC2)n1 [Example 1133, N-(3-(2-ethoxy-6-morpholinopyridin-4-yl)-4-methylphenyl)-2-(trifluoromethyl)isonicotinamide] | 
37 |  | Cc1ncc(NC(=O)c2cc(C(C)(C)O)ccn2)cc1-c1cnc(OCCO)c(N2CCOCC2)c1 [Example 972, N-(6′-(2-hydroxyethoxy)-2-methyl-5-morpholino-[3,3′-bipyridin]-5-yl)-4-(2-hydroxypropan-2-yl)picolinamide] | 
 | 1.9 | CCNc1nc(-c2cc(NC(=O)c3ccnc(C4COC4)c3)ccc2C)cc(N2CCOCC2)n1 [Example 707, N-(3-(2-(ethylamino)-6-morpholinopyrimidin-4-yl)-4-methylphenyl)-2-(oxetan-3-yl)isonicotinamide] | 
 | 1.8 | Cc1ccc(NC(=O)c2cnnc(C(C)(C)C#N)c2)cc1-c1cc(N2CCOCC2)n2nccc2n1 [Example 795, 6-(2-cyanopropan-2-yl)-N-(4-methyl-3-(7-morpholinopyrazolo[1,5-a]pyrimidin-5-yl)phenyl)pyridazine-4-carboxamide] | 
 | 1.3 | CCNc1nc(-c2cc(NC(=O)c3cc(C(F)(F)F)c(=O)n(CC)c3)ccc2C)cc(N2CCOCC2)n1 [Example 703, 1-ethyl-N-(3-(2-(ethylamino)-6-morpholinopyrimidin-4-yl)-4-methylphenyl)-6-oxo-5-(trifluoromethyl)-1,6-dihydropyridine-3-carboxamide] | 
0.9 |  | Cc1ccc(NC(=O)c2ccnc(C(C)(C)C#N)c2)cc1-c1nc(N2CCOCC2)c2sccc2n1 [Example 862, 2-(2-cyanopropan-2-yl)-N-(4-methyl-3-(4-morpholinothieno[3,2-d]pyrimidin-2-yl)phenyl)isonicotinamide] | 

Continued, compound first:

SMILES | IC50 [1] [nM] | IC50 [2] [nM] | further results
CCC(F)(F)c1cc(C(=O)Nc2ccc(C)c(-c3cc(N4CCOCC4)c(=O)n(C)n3)c2)ccn1 [Example 643, 2-(1,1-difluoropropyl)-N-(4-methyl-3-(1-methyl-5-morpholino-6-oxo-1,6-dihydropyridazin-3-yl)phenyl)isonicotinamide] |  | 1.3 | 
CCOc1nnc(-c2cc(NC(=O)c3ccnc(C4(C#N)CC4)c3)ccc2C)cc1N1CCOCC1 [Example 568, 2-(1-cyanocyclopropyl)-N-(3-(6-ethoxy-5-morpholinopyridazin-3-yl)-4-methylphenyl)isonicotinamide] |  | 0.7 | 
Cc1ccc(NC(=O)c2ccnc(C(C)(C)C#N)c2)cc1-c1cncc(N2CCOCC2)n1 [Example 531, 2-(2-cyanopropan-2-yl)-N-(4-methyl-3-(6-morpholinopyrazin-2-yl)phenyl)isonicotinamide] |  | 5 | 
COc1ncc(-c2cc(NC(=O)c3ccnc(C(C)(C)F)c3)cnc2Cl)cc1N1CCOCC1 [Example 262, N-(2-chloro-6′-methoxy-5′-morpholino-[3,3′-bipyridin]-5-yl)-2-(2-fluoropropan-2-yl)isonicotinamide] |  |  | IC50 (Table 2, 3 hours reaction): 3.4 nM
Cc1ncc(NC(=O)c2ccnc(C(F)(F)F)c2)cc1-c1cncc(N2CCOCC2)c1 [Example 295] |  |  | IC50 (Table 2, 3 hours reaction): 3.6 nM
Cc1ccc(NC(=O)c2ccnc(C(F)(F)F)c2)cc1-c1cc(N2CCOCC2)n(C)c(=O)c1 [Example 485, N-(4-methyl-3-(1-methyl-6-morpholino-2-oxo-1,2-dihydropyridin-4-yl)phenyl)-2-(trifluoromethyl)isonicotinamide] |  | 1.1 | 
Cc1ncc(NC(=O)c2ccnc(S(C)(=O)=O)c2)cc1-c1cc(N2CCOCC2)c(OC2CCOCC2)nn1 [Example 632, N-(6-methyl-5-(5-morpholino-6-((tetrahydro-2H-pyran-4-yl)oxy)pyridazin-3-yl)pyridin-3-yl)-2-(methylsulfonyl)isonicotinamide] |  | 7.5 | 
CCOc1nnc(-c2cc(NC(=O)c3ccnc(C(C)(F)F)c3)cnc2C)cc1N1CCOCC1 [Example 620, 2-(1,1-difluoroethyl)-N-(5-(6-ethoxy-5-morpholinopyridazin-3-yl)-6-methylpyridin-3-yl)isonicotinamide] |  | 1.9 | 
Cc1ncc(NC(=O)c2ccnc(C(C)(F)F)c2)cc1-c1cnc(N(C)C)c(N2CCOCC2)c1 [Example 267] |  |  | IC50 (Table 2, 3 hours reaction): 1.1 nM
Cc1ccc(NC(=O)c2ccnc(C(C)(F)F)c2)cc1-c1cc(N2C3CCC2COC3)cc(=O)n1C [Example 691, N-(3-(4-(3-oxa-8-azabicyclo[3.2.1]octan-8-yl)-1-methyl-6-oxo-1,6-dihydropyridin-2-yl)-4-methylphenyl)-2-(1,1-difluoroethyl)isonicotinamide] |  | 23.8 | 
CCOc1ncc(-c2cc(NC(=O)c3cccc(-c4nnco4)c3)ccc2C)cc1N1CCOCC1 [Example 230, N-(3-(6-ethoxy-5-morpholinopyridin-3-yl)-4-methylphenyl)-3-(1,3,4-oxadiazol-2-yl)benzamide] |  |  | IC50 (Table 2, 3 hours reaction): 1.4 nM
COc1nnc(-c2cc(NC(=O)c3ccnc(C(C)(C)O)c3)ccc2C)cc1N1CCOCC1 [Example 556, 2-(2-hydroxypropan-2-yl)-N-(3-(6-methoxy-5-morpholinopyridazin-3-yl)-4-methylphenyl)isonicotinamide] |  | 3.9 | 
Cc1ncc(NC(=O)c2ccnc(C3(C#N)CC3)c2)cc1-c1cnc(N(C)C)c(N2CCOCC2)c1 [Example 266, 2-(1-cyanocyclopropyl)-N-(6′-(dimethylamino)-2-methyl-5′-morpholino-[3,3′-bipyridin]-5-yl)isonicotinamide] |  |  | IC50 (Table 2, 3 hours reaction): 1.9 nM
CCOc1ncc(-c2cc(NC(=O)c3ccnc(S(C)(=O)=O)c3)ccc2C)cc1N1CCOCC1 [Example 232, N-(3-(6-ethoxy-5-morpholinopyridin-3-yl)-4-methylphenyl)-2-(methylsulfonyl)isonicotinamide] |  |  | IC50 (Table 2, 3 hours reaction): 0.8 nM
Cc1ccc(NC(=O)c2ccnnc2)cc1-c1ccnc(N2CCOCC2)c1 [Example 72, N-(4-methyl-3-(2-morpholinopyridin-4-yl)phenyl)pyridazine-4-carboxamide] |  |  | IC50 (Table 2, 3 hours reaction): 600 nM
